Molecules are shown by their SMILES.

The assay addresses human Kv7.2 (Homo sapiens (Human), UniProt O43526). Nature of the assay: SyncroPatch 384 electrophysiology, activation of Kv7.2 in CHO cells. It is filed as cell-based. To be noted: Kv7.2 activation max %, relative to 30 μM ML-213 max activation. On the procedure:
The potency of Kv7 uotentiators was determined using the SyncroPatch 384 (Nanion) high throughput electrophysiology platform.
CHO cells stably expressing either human Kv7.2, Kv7.4 or Kv7.5/7.3 under a constitutive CMV promoter were used for these studies. Cells were maintained in F12 Hams+1 mM L-glutamine (Hyclone) supplemented with 10% FBS (Sigma), 0.3× NEAA (Non-essential Gamino-acids) and 400ug/ml G418 at 37° C. in 5% CO2. Cells were cultured in T-225 flasks (Nunc) for 2-3 days to reach 85-95% confluence prior to electrophysiological recording.
Earle's balanced salt solution (in mM): 135 NaCl, 5.4 KCl, 5 Glucose, 2 CaCl2), 1 MgCl2, 5 HEPES, pH 7.4. Seal enhancer solution (in mM): 90 NaCl, 3 KCl, 35 CaCl2), 10 MgCl2, 10 HEPES, pH 7.4. Extracellular recording solution (in mM): 71 NaCl, 70 NMDG, 13 KCl, 5 Glucose, 2 CaCl2), 1 MgCl2, 10 HEPES, pH 7.4. Intracellular recording solution (in mM): 130 KF, 20 KCl, 4 EGTA, 10 HEPES, 2 EDTA, 0.01 Escin, pH 7.2.
Cells were harvested for electrophysiological recording upon reaching appropriate confluence. Cells were first washed in DPBS (Hyclone, Cat #SH30028.03) and then 2 ml of Accutase (MP Biomedicals #1000449) was added at 28° C. until ˜90% of cells were suspended. F12 HAM's media+1 mM L-glutamine (Hyclone, SH30026.02) was then added to the flask to dilute the accutase. Cells were then triturated until a single cell suspension was achieved, a cell count was performed, and cells were centrifuged for 2 min. at 1,000 rpm. Media was then aspirated, and cells were resuspended in Earle's balanced salt solution to a concentration of 0.75×10^6 cells/ml and allowed to recover for 25 min at 10° C.
At the beginning of each assay, 20 μl of cell suspension was dispensed into each well of a multi-hole 384-well SyncroPatch chip by the onboard pipettor. Cell sealing was initiated, and seal enhancer solution was added to facilitate seal formation. Upon completion of sealing, cells were washed 3 times with extracellular recording solution and the assay voltage protocol was started. Human Kv7.2, Kv7.4 or Kv7.5/7.3 channels were evaluated using a voltage protocol in which cells were voltage-clamped at a holding potential of −60 mV. Potassium currents were continuously activated with a series of three voltage steps to −30 mV for 3 seconds, 40 mV for 1 second and −90 mV for 4 seconds with 12 seconds between successive voltage sweeps. Potassium currents were measured from the −90 mV repolarizing step. Baseline current was assessed for 3.5 minutes prior to the addition of 5.6 μM zinc pyrithione (1μM for Kv7.4). Kv7.2, Kv7.4 or Kv7.5/7.3 current in the presence of zinc pyrithione was acquired over five minutes to allow channels to reach steady state activity prior to addition of test agents. Channel activity was monitored for three minutes preceding the addition of 30 μM ML-213 (3 minutes) to achieve maximum activation. 150 mM TEA with 10 μM XE-991 was applied for 2 minutes to measure the leak current during maximum inhibition of Kv7.2, Kv7.4 or Kv7.5/7.3 channels.
Example 61 Data Analysis Data were collected on the SyncroPatch platform using PatchControl software (Nanion) and processed and analyzed using DataControl Software (Nanion). Percent activation was calculated from potassium current as follows: The average current for the 5 sweeps in the presence of zinc pyrithione immediately preceding test agent addition was taken as the ‘control’ data. Likewise, the average potassium current in the presence of test agents 5 sweeps immediately preceding addition of 30 μM ML-213 was determined for ‘drug’ data. The average potassium current 5 sweeps immediately prior to addition of 150 mM TEA+10 μM XE-991 was determined for ‘max activation’ data while average currents from 5 sweeps immediately following addition of TEA was determined for ‘max inhibition’ data. […]

The compound `N#Cc1cccc(CNC(=O)NC23CC(C(F)F)(C2)C3)c1` [Example 15, 1-[(3-cyanophenyl)methyl]-3-[3-(difluoromethyl)-1-bicyclo[1.1.1]pentanyl]urea] displayed a Kv7.2 max of 58%. To `C[C@H](NC(=O)NC12CC(F)(C1)C2)c1cccc(OC(F)(F)F)c1` [Example 10, 1-(3-fluoro-1-bicyclo[1.1.1]pentanyl)-3-[(1S)-1-[3-(trifluoromethoxy)phenyl]ethyl]urea] belongs 40%. To `O=C(N[C@@H](CO)c1cccc(C(F)(F)F)c1)NC12CC(C(F)(F)F)(C1)C2` [Example 48, 1-[(1R)-2-hydroxy-1-[3-(trifluoromethyl)phenyl]ethyl]-3-[3-(trifluoromethyl)-1-bicyclo[1.1.1]pentanyl]urea] belongs 78%. As for `CC(C)C12CC(NC(=O)N[C@@H](C)c3cccc(OC(F)(F)F)c3)(C1)C2` [Example 27, 1-(3-propan-2-yl-1-bicyclo[1.1.1]pentanyl)-3-[(1S)-1-[3-(trifluoromethoxy)phenyl]ethyl]urea], the figure is 40%; as for `O=C(N[C@@H](CO)c1cccc(C(F)(F)F)c1)NC12CC(C1)C2` [Example 54, 1-(1-bicyclo[1.1.1]pentanyl)-3-[(1R)-2-hydroxy-1-[3-(trifluoromethyl)phenyl]ethyl]urea], 78%; as for `C#Cc1cccc(CNC(=O)NC23CC(C(F)(F)F)(C2)C3)c1` [Example 32, 1-[(3-ethynylphenyl)methyl]-3-[3-(trifluoromethyl)-1-bicyclo[1.1.1]pentanyl]urea], 54%.

`O=C(NC12CC(C1)C2)NC1(c2cccc(C(F)(F)F)c2)CC1` [Example 53, 1-(1-bicyclo[1.1.1]pentanyl)-3-[1-[3-(trifluoromethyl)phenyl]cyclopropyl]urea]: the Kv7.2 max worked out at 82%. To `N#Cc1cccc(CNC(=O)NC23CC(F)(C2)C3)c1` [Example 13, 1-[(3-cyanophenyl)methyl]-3-(3-fluoro-1-bicyclo[1.1.1]pentanyl)urea] belongs 48%; to `[2H]C([2H])(NC(=O)NC12CC(C(F)(F)F)(C1)C2)c1cccc(C#N)c1` [Example 52, 1-[(3-cyanophenyl)-dideuteriomethyl]-3-[3-(trifluoromethyl)-1-bicyclo[1.1.1]pentanyl]urea], 42%; to `C[C@H](NC(=O)NC12CC(F)(C1)C2)c1cccc(F)c1` [Example 24, 1-(3-fluoro-1-bicyclo[1.1.1]pentanyl)-3-[(1S)-1-(3-fluorophenyl)ethyl]urea], 51%. As for `CC(NC(=O)NC12CC(F)(C1)C2)c1cccc(OC(F)F)c1` (stereo not drawn) [Example 38, 1-[1-[3-(difluoromethoxy)phenyl]ethyl]-3-(3-fluoro-1-bicyclo[1.1.1]pentanyl)urea], the figure is 40%; as for `C[C@H](NC(=O)NC12CC(F)(C1)C2)c1cccc(Cl)c1` [Example 18, 1-[(1S)-1-(3-chlorophenyl)ethyl]-3-(3-fluoro-1-bicyclo[1.1.1]pentanyl)urea], 47%. As for `O=C(NCc1cccc(OC(F)(F)F)c1)NC12CC(C1)C2` [Example 28, 1-(1-bicyclo[1.1.1]pentanyl)-3-[[3-(trifluoromethoxy)phenyl]methyl]urea], the figure is 75%; as for `CC(NC(=O)NC12CC(C1)C2)c1cccc(OC(F)(F)F)c1` (stereo not drawn) [Example 37, 1-(1-bicyclo[1.1.1]pentanyl)-3-[1-[3-(trifluoromethoxy)phenyl]ethyl]urea], 44%.

Consider `O=C(NCc1cccc(OC(F)F)c1)NC12CC(C(F)(F)F)(C1)C2` [Example 29, 1-[[3-(difluoromethoxy)phenyl]methyl]-3-[3-(trifluoromethyl)-1-bicyclo[1.1.1]pentanyl]urea], for which the Kv7.2 max was determined as 52%. As for `O=C(N[C@@H](CO)c1cccc(Br)c1)NC12CC(F)(C1)C2` [Example 17, 1-[(1R)-1-(3-bromophenyl)-2-hydroxyethyl]-3-(3-fluoro-1-bicyclo[1.1.1]pentanyl)urea], the figure is 69%; as for `O=C(NCc1cccc(F)c1)NC12CC(F)(C1)C2` [Example 19, 1-(3-fluoro-1-bicyclo[1.1.1]pentanyl)-3-[(3-fluorophenyl)methyl]urea], 49%.

Regarding `O=C(NCc1cccc(C(F)(F)F)c1)NC12CC(C(F)(F)F)(C1)C2` [Example 7, 1-[3-(trifluoromethyl)-1-bicyclo[1.1.1]pentanyl]-3-[[3-(trifluoromethyl)phenyl]methyl]urea], the Kv7.2 max is given as 75%. To `O=C(NCc1cccc(OC(F)(F)F)c1)NC12CC(F)(C1)C2` [Example 6, 1-(3-fluoro-1-bicyclo[1.1.1]pentanyl)-3-[[3-(trifluoromethoxy)phenyl]methyl]urea] belongs 76%; to `N#Cc1cccc(CNC(=O)NC23CC(C(F)(F)F)(C2)C3)c1F` [Example 47, 1-[(3-cyano-2-fluorophenyl)methyl]-3-[3-(trifluoromethyl)-1-bicyclo[1.1.1]pentanyl]urea], 40%; to `CC12CC(NC(=O)NCc3cccc(C#N)c3)(C1)C2` [Example 14, 1-[(3-cyanophenyl)methyl]-3-(3-methyl-1-bicyclo[1.1.1]pentanyl)urea], 50%. To `O=C(NCc1cccc(OCF)c1)NC12CC(C(F)(F)F)(C1)C2` [Example 34, 1-[[3-(fluoromethoxy)phenyl]methyl]-3-[3-(trifluoromethyl)-1-bicyclo[1.1.1]pentanyl]urea] belongs 56%; to `O=C(N[C@@H](CO)c1cccc(Cl)c1)NC12CC(C(F)(F)F)(C1)C2` [Example 3, 1-[(1R)-1-(3-chlorophenyl)-2-hydroxyethyl]-3-[3-(trifluoromethyl)-1-bicyclo[1.1.1]pentanyl]urea], 48%; to `COc1cccc([C@H](C)NC(=O)NC23CC(F)(C2)C3)c1` [Example 8, 1-(3-fluoro-1-bicyclo[1.1.1]pentanyl)-3-[(1S)-1-(3-methoxyphenyl)ethyl]urea], 57%.

The compound `O=C(NCc1cccc(C2COC2)c1)NC12CC(C(F)(F)F)(C1)C2` [Example 30, 1-[[3-(oxetan-3-yl)phenyl]methyl]-3-[3-(trifluoromethyl)-1-bicyclo[1.1.1]pentanyl]urea] showed a Kv7.2 max of 65%. As for `O=C(N[C@@H](CO)c1cccc(OC(F)(F)F)c1)NC12CC(C(F)(F)F)(C1)C2` [Example 55, 1-[(1R)-2-hydroxy-1-[3-(trifluoromethoxy)phenyl]ethyl]-3-[3-(trifluoromethyl)-1-bicyclo[1.1.1]pentanyl]urea], the figure is 77%. Consider `COC12CC(NC(=O)NCc3cccc(OC(F)(F)F)c3)(C1)C2` [Example 1, 1-(3-methoxy-1-bicyclo[1.1.1]pentanyl)-3-[[3-(trifluoromethoxy)phenyl]methyl]urea], for which the Kv7.2 max is given as 73%. To `O=C(NCc1cccc(C(F)(F)F)c1)NC12CC(C1)C2` [Example 23, 1-(1-bicyclo[1.1.1]pentanyl)-3-[[3-(trifluoromethyl)phenyl]methyl]urea] belongs 79%; to `CC(C)C12CC(NC(=O)NCc3cccc(C(F)(F)F)c3)(C1)C2` [Example 21, 1-(3-propan-2-yl-1-bicyclo[1.1.1]pentanyl)-3-[[3-(trifluoromethyl)phenyl]methyl]urea], 67%; to `O=C(NCc1cccc(S(F)(F)(F)(F)F)c1)NC12CC(C1)C2` [Example 39, 1-(1-bicyclo[1.1.1]pentanyl)-3-[[3-(pentafluoro-λ6-sulfanyl)phenyl]methyl]urea], 75%.

Values taken from patent US20250002452A1, “BICYCLOPENTANE DERIVATIVES” (ICAGEN, LLC, priority 2022, published 2025).
